Patent US20250222146A1, “Radiopharmaceuticals Targeting Somatostatin Receptor 2 and Uses Thereof” (RayzeBio, Inc., priority 2023, published 2025)
pKi: −log10 of the molar value. Read-outs that look alike come from different tables or passages of the source. Numbered stars: 1 amine (or outer) side, 2 acyl side, 3 side chain; on linkers, the order of the positions; unused ones are H or OH. Square brackets hold non-standard residues; d marks the D form. Side chains are listed from the residue outwards. Peptide text beside a SMILES is read from it. * marks the point of attachment. DOTA(Lu)NH(CH2)6NHCOCH2 = O=C(CN1CCN2CCN3CCN(CC1)CC(=O)[O][Lu]([O]C(=O)C2)[O]C(=O)C3)NCCCCCCNC(=O)C*; X12 = O=C1CN2CCN3CCN(CC(=O)N4CCC(CC(=O)*)CC4)CCN(CC2)CC(=O)[O][Lu]([O]1)[O]C(=O)C3; DOTA(Lu) = O=C1CN2CCN3CCN(CC(=O)*)CCN(CC2)CC(=O)[O][Lu]([O]1)[O]C(=O)C3; X7 = O=C1CN2CCN3CCN(CC2)[C@H](CCC(=O)*)C(=O)[O][Ga]([O]1)[O]C(=O)C3; Ala(piperidin-4-yl) = O=C([C@H](CC1CCN([*:3])CC1)N[*:1])[*:2]; dTrp(βS-Me) = C[C@@H](c1c[nH]c2ccccc12)[C@@H](N)C(=O)O; Tyr(3,5-F2) = N[C@@H](Cc1cc(F)c(O)c(F)c1)C(=O)O; Phe(3-CONH2) = NC(=O)c1cccc(C[C@H](N)C(=O)O)c1; Phe(3R-Me) = C[C@H](c1ccccc1)[C@H](N)C(=O)O; dTpi = O=C(O)[C@H]1Cc2c([nH]c3ccccc23)CN1; dNMeW = CN[C@H](Cc1c[nH]c2ccccc12)C(=O)O; NMeLys(Me) = CNCCCC[C@H](NC)C(=O)O; Trx = NC[C@H]1CC[C@H](C(=O)O)CC1; 4Pal = N[C@@H](Cc1ccncc1)C(=O)O; NMehCys = CN[C@@H](CCS)C(=O)O; NMeK = CN[C@@H](CCCCN)C(=O)O; NMeC = CN[C@@H](CS)C(=O)O

Target: SSTR2 (Homo sapiens, UniProt P30874)
Assay: SSTR binding affinity by radioligand binding competition assay ([125I]-Tyr11-Somatostatin, membrane extracts)
Settings: radioligand competition, [125I]-Tyr11-Somatostatin 0.1 nM, membrane extracts, Ki from IC50 by Cheng Prusoff
Description: Macrocyclic peptides in this invention were tested for binding to SSTR protein by a radioligand binding competition assay. For radioligand binding assay, competition binding is performed in duplicate in the wells of a 96 well plate containing binding buffer (HEPES 25 mM pH 7.4, MgCl2 5 mM, CaCl2 1 mM, BSA 0.5%, Saponine 10 μg/ml)), membrane extracts (0.6 μg protein/well), radiotracer ([125I]-Tyr11-Somatostatin, Perkin Elmer NEX389) and test compound. Nonspecific binding is determined by co-incubation with 200-fold excess of cold competitor (SST28). The samples are incubated in a final volume of 0.1 ml for 60 min at room temperature and then filtered over UniFilter-96 GF/C (Revvity 6055690) filter plates. Filters are washed six times with 0.5 ml of ice-cold washing buffer (HEPES 25 mM pH 7.4, MgCl2 5 mM, CaCl2 1 mM) and 50 μl of Microscint 20 (Packard) are added in each well. The plates are incubated 15 min on an orbital shaker and then counted with a TopCount™ for 1 min/well. For IC50 to Ki determination, the Cheng Prusoff equation is used: Ki=IC50/(1+ [tracer]/Kd). [Tracer] is 0.1 nM as mentioned above.

SSTR2, sequence (P30874 whole entry): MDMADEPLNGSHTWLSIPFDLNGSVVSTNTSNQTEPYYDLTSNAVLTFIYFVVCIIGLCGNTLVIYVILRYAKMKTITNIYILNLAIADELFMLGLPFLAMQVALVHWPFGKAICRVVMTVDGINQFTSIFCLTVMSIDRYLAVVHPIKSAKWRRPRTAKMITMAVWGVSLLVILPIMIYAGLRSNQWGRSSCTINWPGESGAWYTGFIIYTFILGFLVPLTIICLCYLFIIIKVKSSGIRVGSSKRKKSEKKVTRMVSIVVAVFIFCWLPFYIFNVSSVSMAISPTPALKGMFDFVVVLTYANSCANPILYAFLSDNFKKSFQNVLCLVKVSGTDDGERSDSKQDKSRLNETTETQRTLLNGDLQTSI

Row | SMILES | pKi (read-out: SSTR2 Ki) | pKi (SSTR2 Ki)
1 | C[C@@H](O)[C@@H]1NC(=O)[C@H](CC2CCNCC2)NC(=O)[C@@H]([C@@H](C)c2c[nH]c3ccccc23)NC(=O)[C@H](Cc2ccc(O)cc2)NC(=O)[C@H](CCCCNC(=O)CC2CCN(C(=O)CN3CCN4CCN5CCN(CC3)CC(=O)[O][Lu]([O]C(=O)C5)[O]C(=O)C4)CC2)N(C)C(=O)[C@H](Cc2ccccc2)NC1=O [RB-0006458] (cyclo(F[NMeK](X12)Y[dTrp(βS-Me)][Ala(piperidin-4-yl)]T)) | 8.00 to 8.48 | –
2 | C[C@@H](O)[C@@H]1NC(=O)[C@H](CCCCN)NC(=O)[C@@H](Cc2c[nH]c3ccccc23)NC(=O)[C@H](Cc2cccc(C(N)=O)c2)NC(=O)[C@H](CCSCC(=O)NCCCCCCNC(=O)CN2CCN3CCN4CCN(CC2)CC(=O)[O][Lu]([O]C(=O)C3)[O]C(=O)C4)N(C)C(=O)[C@H](Cc2ccccc2)NC1=O [RB-0003302] (cyclo(F[NMehCys](DOTA(Lu)NH(CH2)6NHCOCH2)[Phe(3-CONH2)][dW]KT)) | 8.00 to 8.48 | –
3 | CC(C)[C@@H]1NC(=O)[C@H](CCCCN)N(C)C(=O)[C@@H](Cc2c[nH]c3ccccc23)N(C)C(=O)[C@H](Cc2ccc(O)cc2)NC(=O)[C@H](CCSCC(=O)NCCCCCCNC(=O)CN2CCN3CCN4CCN(CC2)CC(=O)[O][Lu]([O]C(=O)C3)[O]C(=O)C4)N(C)C(=O)[C@H](Cc2ccccc2)NC1=O [RB-0004611] (cyclo(F[NMehCys](DOTA(Lu)NH(CH2)6NHCOCH2)Y[dNMeW][NMeK]V)) | > 9.00 | –
4 | C[C@@H](O)[C@@H]1NC(=O)[C@H](CC2CCNCC2)NC(=O)[C@@H]([C@@H](C)c2c[nH]c3ccccc23)NC(=O)[C@H](Cc2ccc(O)cc2)NC(=O)[C@H](CCCCNC(=O)CN2CCN3CCN4CCN(CC2)CC(=O)[O][Lu]([O]C(=O)C3)[O]C(=O)C4)N(C)C(=O)[C@H](Cc2ccccc2)NC1=O [RB-0005797] (cyclo(F[NMeK](DOTA(Lu))Y[dTrp(βS-Me)][Ala(piperidin-4-yl)]T)) | > 9.00 | –
5 | C[C@@H](O)[C@@H]1NC(=O)[C@H](CCCCN)NC(=O)[C@@H](Cc2c[nH]c3ccccc23)NC(=O)[C@H](Cc2ccc(O)cc2)NC(=O)[C@H](CCCCNC(=O)CN2CCN3CCN4CCN(CC2)CC(=O)[O][Lu]([O]C(=O)C3)[O]C(=O)C4)N(C)C(=O)[C@H](Cc2ccccc2)NC1=O [RB-0003292] | – | > 9.00
6 | C[C@@H](O)[C@@H]1NC(=O)[C@H](CN2CCNCC2)NC(=O)[C@@H]([C@@H](C)c2c[nH]c3ccccc23)NC(=O)[C@H](Cc2ccc(O)cc2)NC(=O)[C@H](CCCCNC(=O)CC[C@@H]2C(=O)[O][Ga]3[O]C(=O)CN4CCN(CCN2CC4)CC(=O)[O]3)N(C)C(=O)[C@H](Cc2ccccc2)NC1=O [RB-0006414] | 8.48 to 9.00 | –
7 | CC(C)[C@@H]1NC(=O)[C@H](CCCCN)NC(=O)[C@@H](Cc2c[nH]c3ccccc23)NC(=O)[C@H](Cc2ccc(O)cc2)NC(=O)[C@H](CCSCC(=O)NCCCCCCNC(=O)CN2CCN3CCN4CCN(CC2)CC(=O)[O][Lu]([O]C(=O)C3)[O]C(=O)C4)N(C)C(=O)[C@H](Cc2cnc[nH]2)NC1=O [RB-0005255] (cyclo(H[NMehCys](DOTA(Lu)NH(CH2)6NHCOCH2)Y[dW]KV)) | 8.48 to 9.00 | –
8 | C[C@@H](O)[C@@H]1NC(=O)[C@H](CC2CCNCC2)NC(=O)[C@@H]([C@@H](C)c2c[nH]c3ccccc23)NC(=O)[C@H](Cc2ccc(O)cc2)NC(=O)[C@H](CCCCN(C)C(=O)CN2CCN3CCN4CCN(CC2)CC(=O)[O][Lu]([O]C(=O)C4)[O]C(=O)C3)N(C)C(=O)[C@H](Cc2ccccc2)NC1=O [RB-0006579] (cyclo(F[NMeLys(Me)](DOTA(Lu))Y[dTrp(βS-Me)][Ala(piperidin-4-yl)]T)) | 8.00 to 8.48 | –
9 | C[C@@H](O)[C@@H]1NC(=O)[C@H](CN2CCNCC2)NC(=O)[C@@H]([C@@H](C)c2c[nH]c3ccccc23)NC(=O)[C@H](Cc2ccc(O)cc2)NC(=O)[C@H](CCCCNC(=O)CCC2C(=O)[O][Ga]3[O]C(=O)CN4CCN(CCN2CC4)CC(=O)[O]3)N(C)C(=O)[C@H](Cc2ccccc2)NC1=O (mixture of isomers) [RB-0006417] | 8.48 to 9.00 | –
10 | C[C@@H](O)[C@@H]1NC(=O)[C@H](CCCCN)NC(=O)[C@@H](Cc2c[nH]c3ccccc23)NC(=O)[C@H](Cc2ccc(O)cc2)NC(=O)[C@H](CCCSCC(=O)NCCCCCNC(=O)CN2CCN3CCN4CCN(CC2)CC(=O)[O][Lu]([O]C(=O)C3)[O]C(=O)C4)N(C)C(=O)[C@H](Cc2ccccc2)NC1=O [RB-0003482] | > 9.00 | –
11 | C[C@@H](O)[C@@H]1NC(=O)[C@H](CCCCN)NC(=O)[C@@H](Cc2c[nH]c3ccccc23)NC(=O)[C@H](Cc2ccc(O)cc2)NC(=O)[C@H](CNC(=O)[C@@H](CC(=O)O)NC(=O)CCCCCNC(=O)CN2CCN3CCN4CCN(CC2)CC(=O)[O][Lu]([O]C(=O)C3)[O]C(=O)C4)N(C)C(=O)[C@H](Cc2ccccc2)NC1=O [RB-0005734] | 8.48 to 9.00 | –
12 | C[C@@H](O)[C@@H]1NC(=O)[C@H](CC2CCNCC2)NC(=O)[C@@H]([C@@H](C)c2c[nH]c3ccccc23)NC(=O)[C@H](Cc2ccc(O)cc2)NC(=O)[C@H](CCCCNC(=O)CN2CCN3CCN4CCN(CC2)CC(=O)[O][Lu]([O]C(=O)C3)[O]C(=O)C4)N(C)C(=O)[C@H](Cc2ccncc2)NC1=O [RB-0006170] (cyclo([4Pal][NMeK](DOTA(Lu))Y[dTrp(βS-Me)][Ala(piperidin-4-yl)]T)) | 8.00 to 8.48 | –
13 | C[C@@H](O)[C@@H]1NC(=O)[C@H](CCCCN)NC(=O)[C@@H](Cc2c[nH]c3ccccc23)NC(=O)[C@H](Cc2ccncc2)NC(=O)[C@H](CSCC(=O)NCCCCCCNC(=O)CN2CCN3CCN4CCN(CC2)CC(=O)[O][Lu]([O]C(=O)C3)[O]C(=O)C4)N(C)C(=O)[C@H](Cc2ccccc2)NC1=O [RB-0002947] (cyclo([4Pal][dW]KTF[NMeC](DOTA(Lu)NH(CH2)6NHCOCH2))) | 8.00 to 8.48 | –
14 | C[C@@H](O)[C@@H]1NC(=O)[C@H](CCCCN)NC(=O)[C@@H](Cc2c[nH]c3ccccc23)NC(=O)[C@H](Cc2ccc(O)cc2)NC(=O)[C@H](CCSCC(=O)NCCOCCOCCOCCNC(=O)CN2CCN3CCN4CCN(CC2)CC(=O)[O][Lu]([O]C(=O)C3)[O]C(=O)C4)N(C)C(=O)[C@H](COc2ccccc2)NC1=O [RB-0005738] | > 9.00 | –
15 | C[C@H](c1ccccc1)[C@@H]1NC(=O)[C@H]([C@@H](C)O)NC(=O)[C@H](CCCCN)NC(=O)[C@@H](Cc2c[nH]c3ccccc23)NC(=O)[C@H](Cc2ccncc2)NC(=O)[C@H](CCSCC(=O)NCCCCCCNC(=O)CN2CCN3CCN4CCN(CC2)CC(=O)[O][Lu]([O]C(=O)C3)[O]C(=O)C4)N(C)C1=O [RB-0003449] (cyclo([4Pal][dW]KT[Phe(3R-Me)][NMehCys](DOTA(Lu)NH(CH2)6NHCOCH2))) | 7.48 to 8.00 | –
16 | CC(C)[C@@H]1NC(=O)[C@H](CCCCN)NC(=O)[C@@H](Cc2c[nH]c3ccccc23)NC(=O)[C@H](Cc2ccc(O)cc2)NC(=O)[C@H](CCSCC(=O)NCCCCCCNC(=O)CN2CCN3CCN4CCN(CC2)CC(=O)[O][Lu]([O]C(=O)C3)[O]C(=O)C4)N(C)C(=O)[C@H](CO)NC1=O [RB-0005270] (cyclo(KVS[NMehCys](DOTA(Lu)NH(CH2)6NHCOCH2)Y[dW])) | > 9.00 | –
17 | C[C@@H](O)[C@@H]1NC(=O)[C@H](CC2CCNCC2)NC(=O)[C@H]2Cc3c([nH]c4ccccc34)CN2C(=O)[C@H](Cc2ccc(O)cc2)NC(=O)[C@H](CCCCNC(=O)CN2CCN3CCN4CCN(CC2)CC(=O)[O][Lu]([O]C(=O)C3)[O]C(=O)C4)N(C)C(=O)[C@H](Cc2ccccc2)NC1=O [RB-0006213] (cyclo(F[NMeK](DOTA(Lu))Y[dTpi][Ala(piperidin-4-yl)]T)) | 7.00 to 7.48 | –
18 | C[C@@H](O)[C@@H]1NC(=O)[C@H](CCCCN)NC(=O)[C@@H](Cc2c[nH]c3ccccc23)NC(=O)[C@H](Cc2cc(F)c(O)c(F)c2)NC(=O)[C@H](CCSCC(=O)NCCCCCCNC(=O)CN2CCN3CCN4CCN(CC2)CC(=O)[O][Lu]([O]C(=O)C3)[O]C(=O)C4)N(C)C(=O)[C@H](Cc2ccccc2)NC1=O [RB-0005740] (cyclo(F[NMehCys](DOTA(Lu)NH(CH2)6NHCOCH2)[Tyr(3,5-F2)][dW]KT)) | > 9.00 | –
19 | C[C@@H](O)[C@@H]1NC(=O)[C@H](CC2CCNCC2)NC(=O)[C@@H]([C@@H](C)c2c[nH]c3ccccc23)NC(=O)[C@H](Cc2ccc(O)cc2)NC(=O)[C@H](CCCCNC(=O)[C@H]2CC[C@H](CNC(=O)CC[C@@H]3C(=O)[O][Ga]4[O]C(=O)CN5CCN(CCN3CC5)CC(=O)[O]4)CC2)N(C)C(=O)[C@H](Cc2ccccc2)NC1=O [RB-0006470] (cyclo(F[NMeK]([Trx-X7])Y[dTrp(βS-Me)][Ala(piperidin-4-yl)]T)) | 8.48 to 9.00 | –
20 | C[C@@H](O)[C@@H]1NC(=O)[C@H](CCCCN)NC(=O)[C@H](Cc2c[nH]c3ccccc23)NC(=O)[C@H](Cc2ccc(O)cc2)NC(=O)[C@H](CCSCC(=O)NCCCCCCNC(=O)CN2CCN3CCN4CCN(CC2)CC(=O)[O][Lu]([O]C(=O)C3)[O]C(=O)C4)N(C)C(=O)[C@H](Cc2ccccc2)NC1=O [RB-0005858] | – | 8.48 to 9.00
